{"source": "patent US20220387410A1", "about": "“4-[5-[(rac)-1-[5-(3-Chlorophenyl)-3-isoxazolyl]ethoxy]-4-methyl-4H-1,2,4-triazol-3-yl]pyridine for use in prevention and/or treatment of surmenage in a mammal” (priority 2019, published 2022)", "key": {"Mice": {"system": "Mice", "conditions": "p<0.001, cited from earlier work"}, "[1]": {"system": "cat or dog undergoing elective castration or ovariohysterectomy", "test": "Recovery after neutering, TT001 added as pre-medication (Example 1)", "assay_type": "in vivo", "method": "To study recovery after neutering, cage demeanour scoring using a simple descriptive scale was used. The dogs were premedicated with acepromazine and pethidine, intermuscular (i.m.) in a first group, or in a second group TT001 was also added as pre-medication.\n(§1) Twenty to forty minutes after pre-medication, the sedation was scored with the SDS (simple descriptive scale). The dogs were induced with propofol. Anesthesia was maintained with isoflurane in oxygen. Intraoperative analgesia was provided with morphine, prior to surgery. At the end of the surgery, group 1 received meloxicam, while group 2 received no additional treatment.\n(§2) At the end of the procedure and recovery SDS was scored."}, "[2]": {"system": "cat or dog undergoing elective castration or ovariohysterectomy", "test": "Recovery after neutering, TT001 plus meloxicam vs meloxicam (Example 2)", "assay_type": "in vivo", "method": "To study recovery after neutering, cage demeanour scoring using a simple descriptive scale was used. The dogs were premedicated with acepromazine and pethidine, i.m. in a first group, and meloxicam orally or in a second group TT001 was also added as pre-medication.\nas §1, with “pre-medication” for “pre-medication,”, “continued to receive” for “received”, “continued to receive TT001 as well as meloxicam. No” for “received no”, “treatment was administered.” for “treatment.”\nas §2"}, "mouse FST behavior": {"system": "mouse FST behavior", "test": "Forced Swim Test", "assay_type": "in vivo", "conditions": "for Immobility duration: mouse FST, vehicle 112.5 ± 14.10", "description": "TT001 has been used in the Forced Swim Test. _For protocol see Can A., et al., The Mouse Forced Swim Test, J Vis Exp. 2012; (59): 3638."}, "rats": {"system": "rats", "test": "Learned helplessness studies", "assay_type": "in vivo, rat", "description": "Nomura S. et al., Studies on animal model of depression: review and perspective, Review, Yakubutsu Seishin Kodo, 1989 December; 9(4):349-58.\nTT001 was used in learned helplessness studies in rats."}, "dogs [3]": {"system": "dogs", "test": "Toxicological studies in dogs, maximum 52 weeks, gavage", "assay_type": "in vivo, dog", "conditions": "dogs, 2, 6, 7 or 31 mg/kg by gavage, after 52 weeks", "method": "Toxicological studies for TT001 in dogs, were performed on dogs using 2, 6, 7 or 31 mg/kg, for a maximum of 52 weeks. The dogs were fed with gavage throughout this period and blood samples were taken throughout the period.\nBalcome at al Contemporary Topics 2004 by the American Association for Laboratory Animal Science. Vol 43. […] In addition, the animals are separated and live in small areas which further increase the stress."}, "[4]": {"test": "Dissolution of TT001 in I.V. formulation vehicle", "assay_type": "physicochemical", "conditions": "0.1-10 mg/mL in 40% w/v HPβCD in water for injection; a couple of hours for complete dissolution", "method": "Formulation Method for the Preparation of TT001 for I.V. Dosing, 0.1 to 10 mg/ml\nThe formulation method is applicable at concentrations in formulation between 0.1 and 10 mg/mL corresponding to 0.262 and 26.2 μmol/mL\nPreparation of 40% w/v HPβCD solution in water for injection\nPreparation of TT001 I.V. formulations between 0.1 and 10 mg/ml"}, "TLESR": {"system": "TLESR", "conditions": "healthy volunteers, cited from earlier work"}, "humans": {"system": "humans", "conditions": "cited from earlier work"}, "dogs [5]": {"system": "dogs", "conditions": "cited from earlier work"}, "[6]": {"conditions": "cat or dog undergoing elective castration or ovariohysterectomy"}, "[7]": {"conditions": "group 2 (TT001 pre-medication) vs group 1"}, "[8]": {"conditions": "group 2 (TT001 + meloxicam) vs group 1 (meloxicam)"}}, "note": "Like-named read-outs stand apart in the source and are kept apart here. Marks after values point to notes of the source that are not given here.", "data": [{"smiles": "CN1CC(=O)NC1=NC(=O)Nc1cccc(Cl)c1", "note": "[Fenobam]", "values": [{"measurement": "stress-induced hyperthermia (SIH)", "setting": "Mice; 10 mg/kg", "result": "significantly reversed"}, {"measurement": "stress-induced hyperthermia (SIH)", "setting": "Mice; 30 mg/kg", "result": "significantly reversed"}]}, {"smiles": "C[C@@H](Oc1nnc(-c2ccncc2)n1C)c1cc(-c2cccc(Cl)c2)on1", "note": "[TT001, 4-[5-[(1R)-1-[5-(3-Chlorophenyl)-3-isoxazolyl]ethoxy]-4-methyl-4H-1,2,4-triazol-3-yl]pyridine]", "values": [{"measurement": "effect on duration of the recovery period", "setting": "[1]; [6]", "result": "positive effect"}, {"measurement": "cortisol values", "setting": "[1]; group 2 (TT001) vs commonly used anesthesia protocol", "result": "Lower"}, {"measurement": "Time to extubation", "setting": "[1]; group 2 (TT001 added as pre-medication) vs group 1 (acepromazine, pethidine; meloxicam after surgery)", "result": "shorter"}, {"measurement": "Time to lifting the head after surgery", "setting": "[1]; [7]", "result": "shorter"}, {"measurement": "Time to raising from the bed after surgery", "setting": "[1]; [7]", "result": "shorter"}, {"measurement": "Time to start of spontaneous/voluntary urination after surgery", "setting": "[1]; [7]", "result": "shorter"}, {"measurement": "Time to starting to eat after surgery", "setting": "[1]; [7]", "result": "shorter"}, {"measurement": "nausea", "setting": "[1]; [7]", "result": "Less"}, {"measurement": "effect on duration for the recovery period", "setting": "[2]; [6]", "result": "positive effect"}, {"measurement": "Time to extubation", "setting": "[2]; [8]", "result": "shorter"}, {"measurement": "Time to lifting the head after surgery", "setting": "[2]; [8]", "result": "shorter"}, {"measurement": "Time to raising from the bedding after surgery", "setting": "[2]; [8]", "result": "shorter"}, {"measurement": "Time to start of spontaneous/voluntary urination after surgery", "setting": "[2]; [8]", "result": "shorter"}, {"measurement": "Time to starting to eat after surgery", "setting": "[2]; [8]", "result": "shorter"}, {"measurement": "cortisol values", "setting": "[2]; [8]", "result": "Lower"}, {"measurement": "nausea", "setting": "[2]; [8]", "result": "Less"}, {"measurement": "time in intensive care/PACU unit", "setting": "[2]; [8]", "result": "Less"}, {"measurement": "Immobility duration", "setting": "mouse FST behavior; TT001 3 μmol/kg", "result": "51.15 ± 7.788 ^a sec"}, {"measurement": "Immobility duration", "setting": "mouse FST behavior; TT001 10 μmol/kg", "result": "47.45 ± 11.45 ^a sec"}, {"measurement": "Immobility duration", "setting": "mouse FST behavior; TT001 30 μmol/kg", "result": "44.83 ± 4.693 ^a sec"}, {"measurement": "signs of gastric ulcer or changes in mucosa", "setting": "mouse FST behavior; test animals of the mouse Forced Swim Test", "result": "none of the test animals had signs of gastric ulcer"}, {"measurement": "Escape Failures, Day 4 Mean", "setting": "rats; 1.8 μmol/kg, vehicle 11.1", "result": 2.2}, {"measurement": "Escape Failures, Day 3 Mean", "setting": "rats; 1.8 μmol/kg, vehicle 23.2", "result": 6.9}, {"measurement": "Escape Failures, Total Day 3 + Day 4", "setting": "rats; 1.8 μmol/kg, vehicle 34.25, p < 0.05 vs vehicle", "result": "9.1 ^a"}, {"measurement": "stomach ulcers", "setting": "rats; learned helplessness studies", "result": "did not appear"}, {"measurement": "signs of gastric ulcer", "setting": "dogs [3]", "result": "none of the animals showed signs of gastric ulcer"}, {"measurement": "dissolution", "setting": "[4]", "result": "moderate"}, {"measurement": "effect on TLESR", "setting": "TLESR; 13 mg (about 0.19 mg/kg), 2 to 3 hours after food-intake", "result": "some effect"}, {"measurement": "side effects", "setting": "TLESR; high doses of 13 mg", "result": "Some serious side effects"}, {"measurement": "effect on reflux", "setting": "TLESR; prior to food intake and 1-2 hours after food intake", "result": "no significant effect"}, {"measurement": "effect on anxiety", "setting": "humans; humans", "result": "no effect"}, {"measurement": "clinical effect in all indications (chronic pain, anxiety, GERD)", "setting": "humans; man, oral, clinical development discontinued", "result": "lack of effect"}]}, {"smiles": "COc1cccc(C2(O)CCCCC2CN(C)C)c1", "note": "(centres unmarked) [Tramadol]", "values": [{"measurement": "pain killer effect", "setting": "dogs [5]", "result": "not present"}]}]}
